Among the data in patent US20260274832A1, “COMPOUNDS AND THEIR USE IN TREATING CANCER” (ASTRAZENECA AB, priority 2023, published 2026) are DC50 and Dmax values, retold here.

Assay [1] addresses T1, AR (AR-full length) in LNCaP cells (Homo sapiens, UniProt P10275, T878A).
T1 construct: the prostate cancer cell line LNCaP (expressing AR-full length); endogenous in cells; host or cells: LNCaP
Briefly: LNCaP Androgen Receptor Imaging Assay (immunofluorescence of endogenous nuclear AR). To be noted: 24 h incubation; for DC50: concentration giving 50% of maximum degradation of AR per curve fit, single experiment or average of two or more; for Dmax: LNCaP, maximum degradation observed, normalized as % of positive control (prior art AR PROTAC at 3 μM). The assay is classed as cell-based. In a few lines:
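Endogenous nuclear AR level was imaged by immunofluorescence after 24 h compound exposure (12-point dose response, 0.3% DMSO, 37° C./5% CO2) in LNCaP cells. Data were expressed as % of a 3 μM prior-art AR PROTAC control and fitted (bell fit where a hook appeared) to give DC50 and maximum degradation Dmax.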

Assay [2] concerns the target T2, AR (L702H) in LNCaP cells (Homo sapiens, UniProt P10275, L702H/T878A).
T2 construct: engineered to introduce the mutation L702H into the AR gene using CRISPR/Cas9; endogenous in cells; host or cells: LNCaP cells edited by CRISPR/Cas9 at the AR gene
Briefly: LNCaP Androgen Receptor L702H Imaging Assay (LNCaP cells engineered by CRISPR/Cas9). The assay is classed as cell-based. To be noted: LNCaP cells with AR L702H mutation, 24 h incubation; for DC50: concentration giving 50% of maximum degradation of AR (L702H) per curve fit; for Dmax: LNCaP, maximum degradation observed, normalized as % of positive control. In a few lines:
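AR (L702H) degradation, expressed as DC50 and Dmax from curve fits normalized to a positive degrader control, was measured by high-content imaging of anti-AR immunofluorescence. The engineered LNCaP line was dosed over 12 concentrations for 24 h, 0.3% DMSO final, before PFA fixation.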

T2 sequence (P10275 whole entry L702H/T878A): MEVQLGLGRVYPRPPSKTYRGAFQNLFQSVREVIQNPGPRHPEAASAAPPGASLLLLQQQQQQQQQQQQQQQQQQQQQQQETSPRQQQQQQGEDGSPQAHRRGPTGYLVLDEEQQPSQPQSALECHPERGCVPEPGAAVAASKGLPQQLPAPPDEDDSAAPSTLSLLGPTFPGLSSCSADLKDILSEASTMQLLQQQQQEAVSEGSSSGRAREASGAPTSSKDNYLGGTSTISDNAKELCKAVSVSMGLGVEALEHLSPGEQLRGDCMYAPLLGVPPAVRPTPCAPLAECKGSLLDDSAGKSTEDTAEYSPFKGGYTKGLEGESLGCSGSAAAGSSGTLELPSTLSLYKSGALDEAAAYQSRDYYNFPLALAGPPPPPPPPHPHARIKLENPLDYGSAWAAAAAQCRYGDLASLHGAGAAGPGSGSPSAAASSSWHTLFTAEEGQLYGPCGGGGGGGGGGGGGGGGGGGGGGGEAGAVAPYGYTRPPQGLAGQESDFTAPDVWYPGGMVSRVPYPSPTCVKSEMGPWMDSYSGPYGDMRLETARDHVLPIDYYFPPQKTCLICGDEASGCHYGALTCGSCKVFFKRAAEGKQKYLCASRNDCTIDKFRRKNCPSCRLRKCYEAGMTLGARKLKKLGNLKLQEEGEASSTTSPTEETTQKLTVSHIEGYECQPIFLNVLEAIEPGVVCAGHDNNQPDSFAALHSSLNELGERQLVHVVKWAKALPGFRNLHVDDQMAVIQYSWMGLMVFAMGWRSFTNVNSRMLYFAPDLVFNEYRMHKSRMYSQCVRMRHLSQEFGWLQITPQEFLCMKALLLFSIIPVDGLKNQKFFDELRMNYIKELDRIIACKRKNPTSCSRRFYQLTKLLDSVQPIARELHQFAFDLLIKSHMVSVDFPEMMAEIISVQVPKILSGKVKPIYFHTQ
T2 sequence (Q96SW2 whole entry partner): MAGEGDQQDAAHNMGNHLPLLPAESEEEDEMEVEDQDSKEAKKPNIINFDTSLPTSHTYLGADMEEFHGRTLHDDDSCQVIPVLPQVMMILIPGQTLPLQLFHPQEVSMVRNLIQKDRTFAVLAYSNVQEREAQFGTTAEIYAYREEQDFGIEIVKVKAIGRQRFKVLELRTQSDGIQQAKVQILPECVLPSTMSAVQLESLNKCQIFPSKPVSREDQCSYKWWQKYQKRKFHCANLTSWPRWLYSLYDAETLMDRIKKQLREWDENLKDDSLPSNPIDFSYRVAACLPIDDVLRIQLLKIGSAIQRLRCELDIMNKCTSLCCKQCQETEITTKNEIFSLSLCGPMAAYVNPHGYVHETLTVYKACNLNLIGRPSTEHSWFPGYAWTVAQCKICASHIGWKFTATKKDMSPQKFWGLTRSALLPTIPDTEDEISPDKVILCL
T1 sequence (P10275 whole entry T878A): as the sequence (P10275 whole entry L702H/T878A) above, with H702L counted along it
T1 sequence (Q96SW2 whole entry partner): as the sequence (Q96SW2 whole entry partner) above

Consider `COc1nc(N2CCN(CCCC3CCN(c4ccc(C5CCN(c6ccc(Cl)c7c(C#N)c[nH]c67)CC5)cc4)CC3)CC2)cc2c1C(=O)N(C1CCC(=O)NC1=O)C2` (centres unmarked) [Example 88, 4-Chloro-7-(4-{4-[4-(3-{4-[2-(2,6-dioxopiperidin-3-yl)-4-methoxy-3-oxo-2,3-dihydro-1H-pyrrolo[3,4-c]pyridin-6-yl]piperazin-1-yl}propyl)piperidin-1-yl]phenyl}piperidin-1-yl)-1H-indole-3-carbonitrile], for which, in assay [1], it took 13 nM to reach half-maximal degradation (DC50) and the Dmax was determined as 96%. Also, in assay [2], half-maximal degradation (DC50) was put at 21 nM and the Dmax is 99%.

On to `N#Cc1c[nH]c2c(N3CCC(c4ccc(N5CCC(CN6CCC(n7ccc8cc(N9CCC(=O)NC9=O)ccc87)CC6)CC5)cc4)CC3)ccc(F)c12` [Example 89, 7-(4-{4-[4-({4-[5-(2,4-Dioxo-1,3-diazinan-1-yl)-1H-indol-1-yl]piperidin-1-yl}methyl)piperidin-1-yl]phenyl}piperidin-1-yl)-4-fluoro-1H-indole-3-carbonitrile], for which, in assay [1], it took 421 nM to reach half-maximal degradation (DC50) and the Dmax stood at 70%. Also, in assay [2], it took 56 nM to reach half-maximal degradation (DC50) and the Dmax amounted to 97%.

Take `N#Cc1c[nH]c2c(N3CCC(c4ccc(N5CCC(CN6CCC(n7ccc8cc(N9CCC(=O)NC9=O)ccc87)CC6)CC5)cc4)CC3)ccc(Cl)c12` [Example 90, 4-Chloro-7-(4-{4-[4-({4-[5-(2,4-dioxo-1,3-diazinan-1-yl)-1H-indol-1-yl]piperidin-1-yl}methyl)piperidin-1-yl]phenyl}piperidin-1-yl)-1H-indole-3-carbonitrile]: the DC50 in assay [1] came out at 281 nM; in assay [2] it was 164 nM. Also, the Dmax came out at 87% in assay [1] and 101% in assay [2].

For the compound `Cc1ccc(N2CCN(c3ccc(OCCCCN4CCN(c5ccc6c(c5)CN(C5CCC(=O)NC5=O)C6=O)CC4)cc3)CC2)c2[nH]cc(C#N)c12` (centres unmarked) [Example 95, 7-{4-[4-(4-{4-[2-(2,6-Dioxopiperidin-3-yl)-1-oxo-2,3-dihydro-1H-isoindol-5-yl]piperazin-1-yl}butoxy)phenyl]piperazin-1-yl}-4-methyl-1H-indole-3-carbonitrile], in assay [1], the DC50 turned out to be 10 nM and the Dmax was 54%. In assay [2], the DC50 is more than 3000 nM.

In the case of `N#Cc1c[nH]c2c(N3CCC(c4ccc(C(=O)N5CCC(CN6CCN(c7cc8c(cc7F)C(=O)N(C7CCC(=O)NC7=O)C8=O)CC6)CC5)cc4)CC3)ccc(Cl)c12` (centres unmarked) [Example 100, 4-Chloro-7-(4-{4-[4-({4-[2-(2,6-dioxopiperidin-3-yl)-6-fluoro-1,3-dioxo-2,3-dihydro-1H-isoindol-5-yl]piperazin-1-yl}methyl)piperidine-1-carbonyl]phenyl}piperidin-1-yl)-1H-indole-3-carbonitrile], the DC50 in assay [1] is 29 nM; in assay [2] it was 449 nM. In addition, the Dmax was 101% in assay [1] and 89% in assay [2].

`N#Cc1c[nH]c2c(N3CCC(c4ccc(OC5CCN(CC6CCN(c7ccc8c(c7)CN(C7CCC(=O)NC7=O)C8=O)CC6)CC5)cc4)CC3)ccc(F)c12` (centres unmarked) [Example 101, 7-[4-(4-{[1-({1-[2-(2,6-Dioxopiperidin-3-yl)-1-oxo-2,3-dihydro-1H-isoindol-5-yl]piperidin-4-yl}methyl)piperidin-4-yl]oxy}phenyl)piperidin-1-yl]-4-fluoro-1H-indole-3-carbonitrile]: in assay [1], the DC50 turned out to be 6 nM and the Dmax stood at 97%. Moreover, in assay [2], it took 15 nM to reach half-maximal degradation (DC50) and the Dmax is 87%.

`Cc1cc(N2CCC(=O)NC2=O)cc2ccn(C3CCN(CC4CCN(c5ccc(C6CCN(c7ccc(Cl)c8c(C#N)c[nH]c78)CC6)cc5)CC4)CC3)c12` [Example 102, 4-Chloro-7-(4-{4-[4-({4-[5-(2,4-dioxo-1,3-diazinan-1-yl)-7-methyl-1H-indol-1-yl]piperidin-1-yl}methyl)piperidin-1-yl]phenyl}piperidin-1-yl)-1H-indole-3-carbonitrile]: the values for the DC50 in assay [1] and in assay [2] were 52 nM and 44 nM, respectively. The Dmax in assay [1] was found to be 86%; in assay [2], 106%.

On to `Cn1c(C2CCN(CC3CCN(c4ccc(C5CCN(c6ccc(Cl)c7c(C#N)c[nH]c67)CC5)cc4)CC3)CC2)cc2ncc(N3CCC(=O)NC3=O)cc21` [Example 103, 4-Chloro-7-(4-{4-[4-({4-[6-(2,4-dioxo-1,3-diazinan-1-yl)-1-methyl-1H-pyrrolo[3,2-b]pyridin-2-yl]piperidin-1-yl}methyl)piperidin-1-yl]phenyl}piperidin-1-yl)-1H-indole-3-carbonitrile], for which the DC50 in assay [1] is 8 nM; in assay [2], 7 nM. Further, the figures for the Dmax in assay [1] and in assay [2] were 85% and 107%, respectively.

On to `N#Cc1c[nH]c2c(N3CCC[C@@H](c4ccc(N5CCC(CN6CCN(c7ccc(C(=O)NC8CCC(=O)NC8=O)c(F)c7)CC6)CC5)cc4)C3)ccc(Cl)c12` (stereo partly drawn) [Example 104, 4-{4-[(1-{4-[(3S)-1-(4-chloro-3-cyano-1H-indol-7-yl)piperidin-3-yl]phenyl}piperidin-4-yl)methyl]piperazin-1-yl}-N-(2,6-dioxopiperidin-3-yl)-2-fluorobenzamide], for which, in assay [1], it took 13 nM to reach half-maximal degradation (DC50) and the Dmax worked out at 98%. Moreover, in assay [2], the DC50 came to 46 nM and the Dmax is 97%.

In the case of `N#Cc1c[nH]c2c(N3CCC(c4ccc(N5CCC(CN6CCN(c7ccc(C(=O)NC8CCC(=O)NC8=O)c(F)c7)CC6)CC5)cc4)CC3)ccc(F)c12` (centres unmarked) [Example 105, 4-{4-[(1-{4-[1-(3-Cyano-4-fluoro-1H-indol-7-yl)piperidin-4-yl]phenyl}piperidin-4-yl)methyl]piperazin-1-yl}-N-(2,6-dioxopiperidin-3-yl)-2-fluorobenzamide], in assay [1], it took 61 nM to reach half-maximal degradation (DC50) and the Dmax stood at 89%. Besides, in assay [2], the half-maximal degradation concentration (DC50) was determined as 49 nM and the Dmax worked out at 95%.

Consider `N#Cc1c[nH]c2c(N3CCC(c4ccc(N5CCC(CN6CCN(c7ccc(C(=O)NC8CCC(=O)NC8=O)c(F)c7)CC6)CC5)cc4)CC3)ccc(Cl)c12` (centres unmarked) [Example 106, 4-{4-[(1-{4-[1-(4-Chloro-3-cyano-1H-indol-7-yl)piperidin-4-yl]phenyl}piperidin-4-yl)methyl]piperazin-1-yl}-N-(2,6-dioxopiperidin-3-yl)-2-fluorobenzamide], for which, in assay [1], the DC50 worked out at 22 nM and the Dmax stood at 97%. In assay [2], the DC50 was determined as 50 nM and the Dmax came out at 93%.

Turning to `N#Cc1c[nH]c2c(N3CCC(c4ccc(CN5CCN(CC6CCN(c7ccc8c(c7)CN(C7CCC(=O)NC7=O)C8=O)CC6)CC5)cc4)CC3)ccc(F)c12` (centres unmarked) [Example 107, 7-[4-(4-{[4-({1-[2-(2,6-Dioxopiperidin-3-yl)-1-oxo-2,3-dihydro-1H-isoindol-5-yl]piperidin-4-yl}methyl)piperazin-1-yl]methyl}phenyl)piperidin-1-yl]-4-fluoro-1H-indole-3-carbonitrile], in assay [1], the DC50 amounted to 6 nM and the Dmax worked out at 93%. Also, in assay [2], the DC50 turned out to be 300 nM and the Dmax is 107%.

On to `N#Cc1c[nH]c2c(N3CCC(c4ccc(N5CCC(CN6CCC(n7ccc8c(N9CCC(=O)NC9=O)cccc87)CC6)CC5)nc4)CC3)ccc(Cl)c12` [Example 108, 4-Chloro-7-(4-{6-[4-({4-[4-(2,4-dioxo-1,3-diazinan-1-yl)-1H-indol-1-yl]piperidin-1-yl}methyl)piperidin-1-yl]pyridin-3-yl}piperidin-1-yl)-1H-indole-3-carbonitrile], for which, in assay [1], the DC50 is 7 nM and the Dmax was 104%. Besides, in assay [2], half-maximal degradation (DC50) was put at 34 nM and the Dmax was determined as 102%.

Take `N#Cc1c[nH]c2c(N3CCC(c4ccc(N5CCC(CN6CCN(c7ccc8c(c7)CN(C7CCC(=O)NC7=O)C8=O)CC6)CC5)nc4)CC3)ccc(Cl)c12` (centres unmarked) [Example 109, 4-Chloro-7-(4-{6-[4-({4-[2-(2,6-dioxopiperidin-3-yl)-1-oxo-2,3-dihydro-1H-isoindol-5-yl]piperazin-1-yl}methyl)piperidin-1-yl]pyridin-3-yl}piperidin-1-yl)-1H-indole-3-carbonitrile]: the DC50 stood at 5 nM in assay [1] and 10 nM in assay [2]. The Dmax in assay [1] worked out at 97%; in assay [2], 96%.

On to `N#Cc1c[nH]c2c(N3CCC(c4ccc(N5CCC(N6CCN(c7ccc8c(c7)CN(C7CCC(=O)NC7=O)C8=O)CC6)CC5)cc4)CC3)ccc(Cl)c12` (centres unmarked) [Example 110, 4-Chloro-7-{4-[4-(4-{4-[2-(2,6-dioxopiperidin-3-yl)-1-oxo-2,3-dihydro-1H-isoindol-5-yl]piperazin-1-yl}piperidin-1-yl)phenyl]piperidin-1-yl}-1H-indole-3-carbonitrile], for which, in assay [1], it took 6 nM to reach half-maximal degradation (DC50) and the Dmax amounted to 88%. Moreover, in assay [2], half-maximal degradation (DC50) was put at 5 nM and the Dmax was 97%.

What is called DC50 is the midpoint of the concentration-degradation curve. Higher therefore signals a less potent degrader. As a reminder, the Dmax is the greatest extent of degradation seen.
